Experimental data published in publication PMC6260619, “Selective Cytotoxicity of Goniothalamin against Hepatoblastoma HepG2 Cells” (Molecules, 2011).

What was measured:
HepG2 cells [1] = experiment: Cell cycle PI analysis by flow cytometry, HepG2; assay type: cell-based, human
Description: The ability of a substance to affect specific phases of the cell cycle may provide clues as to its mechanism(s) of action. To determine the effects of goniothalamin on the cell cycle, HepG2 cells were treated with IC50 levels of goniothalamin (determined from the MTT assay) for 24, 48 and 72 hours, respectively. The cells were stained with PI and the DNA contents analyzed by flow cytometry.
(§1) The treated cells were trypsinized and washed with PBS. After centrifugation, the supernatant was removed. Then, 1 × 10^6 cells were harvested and fixed in ice-cold ethanol (70%). The fixed cells were centrifuged at high speed (180 × g) for 10 minutes to adequately pellet down the cells that were suspended in the ethanol. The pellet was washed by the ice-cold PBS and then centrifuged again at 180 × g for 10 minutes. The final pellet was resuspended with 1 mL of RNase and incubated at 37 °C for 30 minutes. At the end of incubation, DNA binding dye PI (1 mg/mL) was added to give a final concentration of 50 µg/mL. The mixture was incubated at room temperature for 10 min in the dark. Data acquisition and analysis were performed in by flow cytometry FACS Calibur flow cytometer (Becton Dickinson, Franklin Lakes, NJ, USA) using CellQuest 3.3 software.

Chang cells [2] = experiment: Cell cycle PI analysis by flow cytometry, Chang; assay type: cell-based, human
Description: The effect of goniothalamin on the cell cycle distribution of non-malignant Chang cells was also assessed. […] Accordingly, goniothalamin induced a marked apoptosis in a time-dependent manner at IC50 concentrations. As expected, the increase in the apoptotic population was associated with a concomitant enlargement of the pre-phase population, as observed in cell cycle analysis.
as §1

HepG2 cells [3] = experiment: BrdU cell proliferation ELISA, HepG2; assay type: cell-based, human
Description: To further confirm the potential of goniothalamin-induced cell death HepG2 cells, a BrdU cell proliferation assay was performed. The cell proliferation percentage was measured by the incorporation of the thymidine analogue bromodeoxyuridine into DNA. In untreated HepG2, the absorbances (OD) at 450 nm wavelength were 1.445, 2.188 and 2.553 for 24, 48 and 72 hours, respectively. The cell proliferation rate was reduced in a concentration dependent manner after the addition of goniothalamin, compared to untreated control cells after all the times (Figure 3). […] Inhibition of DNA synthesis at the highest concentration (150 µM) is also time-dependent and is the most severe.
To confirm anti-proliferative effects in goniothalamin-treated cells, BrdU cell proliferation kit was used. HepG2 and Chang cells were seeded at 1.5 × 10^5 cells/mL in a final volume of 100 μL in a 96-well culture dish and incubated overnight to allow the cells to adhere to the dish. Each sample was assayed in triplicate. Besides, the control samples include a blank (no cells) and background (cells without BrdU) was also prepared. […] Then, BrdU label (20 μL, diluted by 1/2,000 in media) was added to each well and incubated for 24 h at 37 °C. The media was discarded and replaced by fix/denaturing solution (200 μL). The plate was incubated for 30 min at room temperature. The fix/denaturing solution was removed by inverting the plate. Then, BrdU antibody (100 μL, diluted by 1/100 in dilution buffer) was added to each well and left for 1 hour at room temperature. The cells were washed 3 times with wash buffer. After that, secondary antibody (100 μL, anti-mouse IgG HRP conjugated) was added to each well for 30 min. The washing step was done three times with wash buffer and once with distilled water. The distilled water was removed and substrate solution (100 μL) was added to each well. The plate was left for 15 min at room temperature in the dark condition. Finally, stop solution (100 μL) was added to the wells and absorbance measured at 450–540 nm.

HepG2 cells [4] = experiment: Trypan blue dye exclusion viable cell count, HepG2; assay type: cell-based, human
Description: (§2) As supported by MTT and LDH results, goniothalamin inhibited cell proliferation towards HepG2 in a time- and dose-dependent manner as shown in the BrdU incorporation ELISA method. The effects of goniothalamin on HepG2 and Chang cell growth were also analyzed by viable cell counts using trypan blue dye exclusion assay for 24, 48 and 72 hours after treatment with different doses of goniothalamin. […] The ratio between viable cell numbers in goniothalamin-treated cells and control cells was reported as the Viablity Index (VI, Figure 5A and Figure 5B).
(§3) A half mL aliquot of cell suspension (obtained from treated and non-treated HepG2 and Chang cells), was mixed with 0.5 mL of 0.4% trypan blue dye and left for 5 min at room temperature). The cells were counted using the hemacytometer and the percentage of dead cells was determined.

Chang cells [5] = experiment: Trypan blue dye exclusion viable cell count, Chang; assay type: cell-based
Description: as §2, §3

[6] = HepG2, 24h, at IC50 (goniothalamin 9.2 µM; doxorubicin 2.2 µM)
[7] = HepG2, 48h, at IC50 (goniothalamin 8.3 µM; doxorubicin 4.3 µM)
[8] = HepG2, 72h, at IC50 (goniothalamin 4.6 µM; doxorubicin […])
[9] = 24h, at IC50 (goniothalamin 79.10 µM; doxorubicin 0.83 µM)
[10] = 48h, at IC50 (goniothalamin 63.75 µM; doxorubicin 0.41 µM)
[11] = 72h, at IC50 (goniothalamin 35.01 µM; doxorubicin 0.28 µM)

O=C1C=CC[C@H](/C=C/c2ccccc2)O1 [Goniothalamin, 5-hydroxy-7-phenylhepta-2,6-dienoic acid lactone]
G0/G1 (HepG2 cells [1]; [6]): 68.92 ± 1.27% | G2+M (HepG2 cells [1]; [6]): 5.94 ± 0.22% | S (HepG2 cells [1]; [6]): 7.68 ± 0.12% | SubG0/G1 (HepG2 cells [1]; [6]): 17.44 ± 1.67% | G0/G1 (HepG2 cells [1]; [7]): 39.71 ± 3.50% | G2+M (HepG2 cells [1]; [7]): 5.67 ± 4.13% | S (HepG2 cells [1]; [7]): 8.03 ± 0.29% | SubG0/G1 (HepG2 cells [1]; [7]): 46.59 ± 2.79% | G0/G1 (HepG2 cells [1]; [8]): 31.79 ± 5.82% | G2+M (HepG2 cells [1]; [8]): 2.31 ± 4.19% | S (HepG2 cells [1]; [8]): 7.07 ± 0.18% | SubG0/G1 (HepG2 cells [1]; [8]): 58.83 ± 2.09% | SubG0/G1 (HepG2 cells [1]; HepG2, 72h, at IC50 (goniothalamin 4.6 µM; doxorubicin […]), listed as goniothalamin): 59% | G0/G1 (Chang cells [2]; [9]): 55.08 ± 3.60% | G2+M (Chang cells [2]; [9]): 14.89 ± 5.53% | S (Chang cells [2]; [9]): 12.65 ± 2.79% | SubG0/G1 (Chang cells [2]; [9]): 17.38 ± 7.29% | G0/G1 (Chang cells [2]; [10]): 58.68 ± 9.45% | G2+M (Chang cells [2]; [10]): 2.5 ± 5.89% | S (Chang cells [2]; [10]): 5.82 ± 0.16% | SubG0/G1 (Chang cells [2]; [10]): 33.00 ± 3.40% | G0/G1 (Chang cells [2]; [11]): 11.60 ± 0.07% | G2+M (Chang cells [2]; [11]): 2.5 ± 0.44% | S (Chang cells [2]; [11]): 4.91 ± 0.13% | SubG0/G1 (Chang cells [2]; [11]): 80.99 ± 0.64% | OD value at 450 nm (BrdU incorporation) (HepG2 cells [3]; HepG2, IC50 concentration, 24 hours, untreated 1.445): 0.635 | OD value at 450 nm (BrdU incorporation) (HepG2 cells [3]; HepG2, IC50 concentration, 72 hours, untreated 2.553): 0.372 | cell proliferation as compared to control (BrdU) (HepG2 cells [3]; HepG2, lowest concentration (2.3 µL as printed), 72 hours): 19.8% | OD value at 450 nm (BrdU incorporation) (HepG2 cells [3]; HepG2, lowest concentration, 72 hours, untreated 2.553): 0.505 | viability (cell count, trypan blue) (HepG2 cells [4]; HepG2, 2.3 µM): significantly inhibited | Viability Index (HepG2 cells [4]; HepG2, at IC50, 72 hours): 52 ± 1.73% | inhibition at 4.6 µM (HepG2 cells [4]; Homo sapiens, HepG2, 4.6 µM, 72 hours, read-out: inhibition of cell growth (trypan blue)): 52% | inhibition at 8.3 µM (HepG2 cells [4]; Homo sapiens, HepG2, 8.3 µM, 48 hours, read-out: inhibition of cell growth (trypan blue)): 64% | inhibition at 9.2 µM (HepG2 cells [4]; Homo sapiens, HepG2, 9.2 µM, 24 hours, read-out: inhibition of cell growth (trypan blue)): 79% | Viability Index (Chang cells [5]; at IC50, 72 hours): 62 ± 4.36% | cytotoxicity (cell count, trypan blue) (Chang cells [5]; doses comparable to 2.3 µM): no obvious cytotoxicity
